Test results reported in ChEMBL document CHEMBL1201862, “PubChem BioAssay data set” (2004).
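Grown in 96-well plates, cells were treated for 48 hours with each compound at five concentrations. Insufficient inhibition: endpoint recorded as highest concentration tested. GI50 marks 50% less growth.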 The source made the active and inactive calls. Cut-off read from the data, not from the text of the source: active = GI50 up to about 1.1 µM and inactive = higher.

Key:
Test in all cases: DTP human tumour cell line panel, 48 h
K562 = test system: K562
TK-10 = test system: TK-10
A498 = test system: A498
IGROV-1 = test system: IGROV-1
NCI/ADR-RES = test system: NCI/ADR-RES
T47D = test system: T47D
UACC-257 = test system: UACC-257
CCRF-CEM = test system: CCRF-CEM
HT-29 = test system: HT-29
OVCAR-5 = test system: OVCAR-5
PC-3 = test system: PC-3
COLO 205 = test system: COLO 205
SNB-19 = test system: SNB-19
DMS-114 = test system: DMS-114
HL-60 = test system: HL-60
OVCAR-4 = test system: OVCAR-4
SF-268 = test system: SF-268
A549 = test system: A549
SNB-78 = test system: SNB-78
MDA-N = test system: MDA-N
DU-145 = test system: DU-145
SR = test system: SR
KM-20L2 = test system: KM-20L2
HOP-18 = test system: HOP-18
NCI-H23 = test system: NCI-H23
SN12C = test system: SN12C
Hs-578T = test system: Hs-578T
RXF 631 = test system: RXF 631
NCI-H522 = test system: NCI-H522
DLD-1 = test system: DLD-1
MCF7 = test system: MCF7
LOX IMVI = test system: LOX IMVI
HOP-92 = test system: HOP-92
HCT-116 = test system: HCT-116
SW-620 = test system: SW-620
MOLT-4 = test system: MOLT-4
CAKI-1 = test system: CAKI-1
KM12 = test system: KM12
UO-31 = test system: UO-31
RXF 393 = test system: RXF 393
Malme-3M = test system: Malme-3M
MDA-MB-435 = test system: MDA-MB-435
RPMI-8226 = test system: RPMI-8226
MDA-MB-231 = test system: MDA-MB-231
SK-OV-3 = test system: SK-OV-3
SK-MEL-2 = test system: SK-MEL-2
NCI-H226 = test system: NCI-H226
NCI-H460 = test system: NCI-H460
SK-MEL-28 = test system: SK-MEL-28
SNB-75 = test system: SNB-75
ACHN = test system: ACHN
HCC 2998 = test system: HCC 2998
786-0 = test system: 786-0
OVCAR-8 = test system: OVCAR-8
SF-539 = test system: SF-539
EKVX = test system: EKVX
M19-MEL = test system: M19-MEL
U-251 = test system: U-251
HOP-62 = test system: HOP-62
SF-295 = test system: SF-295
M14 = test system: M14
LXFL 529 = test system: LXFL 529
HCT-15 = test system: HCT-15
SK-MEL-5 = test system: SK-MEL-5
OVCAR-3 = test system: OVCAR-3
UACC-62 = test system: UACC-62
BT-549 = test system: BT-549
XF498 = test system: XF498
DMS-273 = test system: DMS-273

Measured: GI50

Cc1nc2ccc(NCCN(C)C)c3c(=O)c4ccccc4n1c23
inactive: K562 1.39 µM | TK-10 4.08 µM | A498 3.91 µM | IGROV-1 1.75 µM | T47D 12.2 µM | UACC-257 4.65 µM | CCRF-CEM 1.22 µM | OVCAR-5 4.9 µM | COLO 205 1.17 µM | SNB-19 4.19 µM | DMS-114 5.52 µM | HL-60 3.37 µM | OVCAR-4 1.83 µM | SF-268 3.48 µM | A549 1.16 µM | SNB-78 6.79 µM | MDA-N 1.66 µM | DU-145 2.07 µM | KM-20L2 1.99 µM | HOP-18 3.2 µM | NCI-H23 2.97 µM | SN12C 2.31 µM | Hs-578T 2.55 µM | RXF 631 1.74 µM | NCI-H522 1.52 µM | DLD-1 2.74 µM | MCF7 3.3 µM | HOP-92 2.25 µM | CAKI-1 2.76 µM | KM12 2.21 µM | UO-31 2.13 µM | RXF 393 10.5 µM | Malme-3M 4.14 µM | MDA-MB-435 2.09 µM | RPMI-8226 2.04 µM | SK-OV-3 3.96 µM | SK-MEL-2 5.47 µM | NCI-H226 1.56 µM | SK-MEL-28 8.22 µM | SNB-75 3.5 µM | ACHN 1.52 µM | HCC 2998 2.96 µM | 786-0 1.68 µM | SF-539 2.74 µM | EKVX 3.05 µM | M19-MEL 5.9 µM | U-251 2.22 µM | HOP-62 1.51 µM | SF-295 1.84 µM | M14 4.03 µM | LXFL 529 6.56 µM | SK-MEL-5 2.21 µM | OVCAR-3 5 µM | UACC-62 5.02 µM | BT-549 10.5 µM
active: NCI/ADR-RES 1.06 µM | HT-29 1.02 µM | PC-3 1.1 µM | SR 0.439 µM | LOX IMVI 0.9 µM | HCT-116 0.851 µM | SW-620 0.601 µM | MOLT-4 0.348 µM | MDA-MB-231 1.05 µM | NCI-H460 0.736 µM | OVCAR-8 0.914 µM
1.25 µM: HCT-15

CCOC(=O)C(/C(=N\NC(=O)OC)C(=O)Nc1cc(OC)ccc1OC)c1cnc2ccccc2n1 (stereo unspecified)
inactive: K562 > 100 µM | TK-10 > 100 µM | A498 > 100 µM | IGROV-1 > 100 µM | UACC-257 > 100 µM | CCRF-CEM > 100 µM | HT-29 > 100 µM | COLO 205 > 100 µM | DMS-114 > 100 µM | HL-60 69.2 µM | OVCAR-4 > 100 µM | SF-268 > 100 µM | A549 > 100 µM | SNB-78 > 100 µM | SR > 100 µM | HOP-18 85.9 µM | NCI-H23 > 100 µM | SN12C > 100 µM | NCI-H522 > 100 µM | DLD-1 > 100 µM | LOX IMVI > 100 µM | HOP-92 > 100 µM | HCT-116 > 100 µM | SW-620 > 100 µM | CAKI-1 > 100 µM | XF498 > 100 µM | UO-31 > 100 µM | RXF 393 > 100 µM | Malme-3M > 100 µM | RPMI-8226 > 100 µM | SK-OV-3 > 100 µM | NCI-H226 > 100 µM | NCI-H460 > 100 µM | SK-MEL-28 > 100 µM | SNB-75 > 100 µM | ACHN > 100 µM | HCC 2998 > 100 µM | 786-0 > 100 µM | OVCAR-8 > 100 µM | SF-539 > 100 µM | EKVX > 100 µM | M19-MEL > 100 µM | U-251 > 100 µM | HOP-62 > 100 µM | SF-295 > 100 µM | M14 > 100 µM | LXFL 529 > 100 µM | SK-MEL-5 > 100 µM | UACC-62 > 100 µM
> 100 µM: HCT-15

O=C1CCCC(O)=C1SC1=C(O)CCCC1=O
inactive: K562 51.4 µM | TK-10 > 100 µM | A498 39.2 µM | IGROV-1 > 100 µM | UACC-257 > 100 µM | CCRF-CEM 71.6 µM | HT-29 72.8 µM | OVCAR-5 > 100 µM | COLO 205 > 100 µM | SNB-19 > 100 µM | HL-60 > 100 µM | OVCAR-4 > 100 µM | SF-268 > 100 µM | A549 70.3 µM | SNB-78 > 100 µM | HOP-18 > 100 µM | NCI-H23 > 100 µM | SN12C 74 µM | RXF 631 > 100 µM | NCI-H522 > 100 µM | DLD-1 35.2 µM | LOX IMVI > 100 µM | HOP-92 > 100 µM | HCT-116 76 µM | SW-620 > 100 µM | MOLT-4 > 100 µM | CAKI-1 94.2 µM | KM12 > 100 µM | UO-31 98.2 µM | RXF 393 > 100 µM | Malme-3M > 100 µM | RPMI-8226 > 100 µM | SK-OV-3 > 100 µM | SK-MEL-2 > 100 µM | DMS-273 > 100 µM | NCI-H226 > 100 µM | SK-MEL-28 69.2 µM | SNB-75 77.4 µM | HCC 2998 70.1 µM | 786-0 81.1 µM | OVCAR-8 > 100 µM | SF-539 > 100 µM | EKVX > 100 µM | M19-MEL > 100 µM | U-251 > 100 µM | SF-295 > 100 µM | M14 56.4 µM | SK-MEL-5 > 100 µM | OVCAR-3 > 100 µM | UACC-62 46.9 µM
47.2 µM: HCT-15

O=P1(O)c2ccccc2Nc2cc(C(F)(F)F)ccc21
inactive: K562 > 100 µM | TK-10 > 100 µM | A498 > 100 µM | IGROV-1 > 100 µM | NCI/ADR-RES > 100 µM | T47D > 100 µM | UACC-257 > 100 µM | CCRF-CEM > 100 µM | HT-29 > 100 µM | OVCAR-5 > 100 µM | PC-3 > 100 µM | COLO 205 > 100 µM | SNB-19 > 100 µM | DMS-114 > 100 µM | HL-60 > 100 µM | OVCAR-4 > 100 µM | SF-268 > 100 µM | A549 > 100 µM | SNB-78 > 100 µM | MDA-N > 100 µM | DU-145 > 100 µM | SR > 100 µM | KM-20L2 > 100 µM | HOP-18 > 100 µM | NCI-H23 > 100 µM | SN12C > 100 µM | Hs-578T > 100 µM | NCI-H522 > 100 µM | DLD-1 > 100 µM | MCF7 > 100 µM | LOX IMVI > 100 µM | HOP-92 > 100 µM | HCT-116 > 100 µM | SW-620 > 100 µM | MOLT-4 > 100 µM | CAKI-1 > 100 µM | XF498 > 100 µM | KM12 > 100 µM | UO-31 > 100 µM | RXF 393 > 100 µM | Malme-3M > 100 µM | MDA-MB-435 > 100 µM | RPMI-8226 > 100 µM | MDA-MB-231 > 100 µM | SK-OV-3 > 100 µM | SK-MEL-2 > 100 µM | DMS-273 > 100 µM | NCI-H226 > 100 µM | NCI-H460 > 100 µM | SK-MEL-28 > 100 µM | SNB-75 > 100 µM | ACHN > 100 µM | HCC 2998 > 100 µM | 786-0 > 100 µM | OVCAR-8 > 100 µM | SF-539 > 100 µM | EKVX > 100 µM | M19-MEL > 100 µM | U-251 > 100 µM | HOP-62 > 100 µM | SF-295 > 100 µM | M14 > 100 µM | LXFL 529 > 100 µM | SK-MEL-5 > 100 µM | OVCAR-3 > 100 µM | UACC-62 > 100 µM | BT-549 > 100 µM
> 100 µM: HCT-15
